Source: US10124004B2, “Pyrido[3,4-d]pyrimidine derivative and pharmaceutically acceptable salt thereof” (Teijin Pharma Limited, priority 2015, dated 2018)

What was measured:
CDK2/cyclin A2 = biological target: T1, CDK2/cyclin A2 (Homo sapiens, UniProt P24941); assay: Human CDK2/cyclin A2 inhibitory activity (QS S Assist CDK2/Cyclin A2_FP Kit, IMAP fluorescence polarization); format: biochemical; conditions: 50% inhibitory concentration against CDK2/cyclin A2, given as class symbol
T1 construct: purchased Carna Biosciences, Inc. QS S Assist CDK2/Cyclin A2_FP Kit
Summary of the method: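 Kinase activity read as fluorescence polarization (485/535 nm) after phosphorylated fluorescent substrate binds IMAP reagent (30 min, RT, dark). Enzyme (2.5 ng/well) reacted 60 min at RT with ATP/substrate/metal in HEPES pH 7.4 buffer with Tween 20 and DTT; no-enzyme wells define 0% activity; IC50 by curve fit.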

CDK4/cyclin D3 = biological target: T2, CDK4/cyclin D3 (Homo sapiens, UniProt P11802); assay: Human CDK4/cyclin D3 inhibitory activity (QS S Assist CDK4/Cyclin D3_FP Kit, IMAP fluorescence polarization); format: biochemical; conditions: 50% inhibitory concentration against CDK4/cyclin D3, given as class symbol
T2 construct: purchased Carna Biosciences, Inc. QS S Assist CDK4/Cyclin D3_FP Kit
T2 sequence (P11802 whole entry): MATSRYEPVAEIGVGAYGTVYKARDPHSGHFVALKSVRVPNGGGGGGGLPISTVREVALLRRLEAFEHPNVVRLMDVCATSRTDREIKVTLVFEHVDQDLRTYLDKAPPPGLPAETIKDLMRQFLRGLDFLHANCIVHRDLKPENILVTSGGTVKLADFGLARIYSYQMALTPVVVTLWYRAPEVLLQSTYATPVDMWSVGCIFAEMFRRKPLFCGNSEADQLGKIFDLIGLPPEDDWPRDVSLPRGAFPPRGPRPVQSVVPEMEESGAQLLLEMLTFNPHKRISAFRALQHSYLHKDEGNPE
T2 sequence (P30281 whole entry partner): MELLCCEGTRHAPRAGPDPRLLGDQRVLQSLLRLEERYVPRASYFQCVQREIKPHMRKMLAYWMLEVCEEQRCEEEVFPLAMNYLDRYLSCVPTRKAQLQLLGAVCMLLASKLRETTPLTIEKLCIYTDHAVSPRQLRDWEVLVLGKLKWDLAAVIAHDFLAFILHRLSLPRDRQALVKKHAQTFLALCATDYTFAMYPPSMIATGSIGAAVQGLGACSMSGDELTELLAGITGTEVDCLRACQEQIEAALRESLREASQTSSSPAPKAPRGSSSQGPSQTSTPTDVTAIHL
Summary of the method: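 Percent inhibition, relative to DMSO with and without enzyme, was curve-fitted to give IC50 from polarization (ex 485, em 535 nm). The 45-min room-temperature reaction used 12.5-25 ng/well enzyme, kit ATP/substrate/metal mix, and HEPES pH 7.4 buffer with Tween20 and DTT, followed by 30-min IMAP binding in the dark.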

Row | SMILES | IC50 (CDK2/cyclin A2) [nM] | IC50 (CDK4/cyclin D3) [nM]
1 | CCCNc1nc([C@@H](C)O)cc2cnc(Nc3ccc4c(n3)CCN(C(=O)OCCN(C)C)C4)nc12 [Compound 1141] | ≥ 100 | < 10
2 | CCNc1nc([C@@H](C)O)cc2cnc(Nc3ccc4c(n3)CCN(C(=O)OCCN(C)C)C4)nc12 [Compound 1142] | ≥ 100 | < 10
3 | C[C@@H](O)c1cc2cnc(Nc3ccc4c(n3)CCN(C(=O)OCCN(C)C)C4)nc2c(N[C@H]2CCCOC2)n1 [Compound 1143] | ≥ 100 | < 10
4 | CO[C@H](C)c1cc2cnc(Nc3ccc4c(n3)CCN(C(=O)CO)C4)nc2c(N[C@H]2CC[C@H](O)CC2)n1 [Compound 1144] | ≥ 100 | < 10
5 | O=C(CO)N1CCc2nc(Nc3ncc4cc(C5CCOC5)nc(N[C@H]5CC[C@H](O)CC5)c4n3)ccc2C1 (stereo partly shown) [Compound 1145] | ≥ 100 | < 10
6 | CC1(c2cc3cnc(Nc4ccc5c(n4)CCN(C(=O)CO)C5)nc3c(N[C@H]3CC[C@H](O)CC3)n2)COC1 [Compound 1146] | ≥ 100 | < 10
7 | CCNc1nc([C@@H](C)O)cc2cnc(Nc3ccc(CN4CCC(CO)CC4)cn3)nc12 [Compound 1147] | ≥ 100 | < 10
8 | CCCCNc1nc([C@@H](C)O)cc2cnc(Nc3ccc(CN4CCC(CO)CC4)cn3)nc12 [Compound 1148] | ≥ 100 | < 10
9 | C[C@@H](O)c1cc2cnc(Nc3ccc(CN4CCC(CO)CC4)cn3)nc2c(NCC2CC2)n1 [Compound 1149] | ≥ 100 | < 10
10 | C[C@@H](O)c1cc2cnc(Nc3ccc(CN4CCC(CO)CC4)cn3)nc2c(NC2CCC2)n1 [Compound 1150] | ≥ 100 | < 10
11 | C[C@@H](O)c1cc2cnc(Nc3ccc(CN4CCC(CO)CC4)cn3)nc2c(N[C@H]2CC[C@H](O)CC2)n1 [Compound 1151] | ≥ 100 | < 10
12 | C[C@@H](O)c1cc2cnc(Nc3ccc(CN4CCC(CO)CC4)cn3)nc2c(NCC2CCOCC2)n1 [Compound 1152] | ≥ 100 | < 10
13 | CO[C@H](C)c1cc2cnc(Nc3ccc4c(n3)CCN(CCO)C4)nc2c(N[C@H]2CC[C@H](O)CC2)n1 [Compound 1153] | ≥ 100 | < 10
14 | OCCN1CCc2nc(Nc3ncc4cc(C5CCOC5)nc(N[C@H]5CC[C@H](O)CC5)c4n3)ccc2C1 (stereo partly shown) [Compound 1154] | ≥ 100 | < 10
15 | CC1(c2cc3cnc(Nc4ccc5c(n4)CCN(CCO)C5)nc3c(N[C@H]3CC[C@H](O)CC3)n2)COC1 [Compound 1155] | ≥ 100 | < 10
16 | C[C@@H](O)c1cc2cnc(Nc3ccc(CN4CCC(CO)CC4)cn3)nc2c(N[C@H]2CCCOC2)n1 [Compound 1156] | ≥ 100 | < 10
17 | CO[C@H](C)c1cc2cnc(Nc3ccc(CN4CCN(C(=O)C5CCCO5)CC4)cn3)nc2c(NC(C)C)n1 (stereo partly shown) [Compound 1157] | ≥ 100 | 10 to 100
18 | CO[C@H](C)c1cc2cnc(Nc3ccc(CN4CCN(C(=O)C5CCOC5)CC4)cn3)nc2c(NC(C)C)n1 (stereo partly shown) [Compound 1158] | ≥ 100 | < 10
19 | CCCNc1nc([C@@H](C)O)cc2cnc(Nc3ccc(N4CCC(N(C)C)CC4)nn3)nc12 [Compound 1159] | ≥ 100 | < 10
20 | CC(C)Nc1nc([C@@H](C)O)cc2cnc(Nc3ccc(C(=O)NCCN(C)C)cn3)nc12 [Compound 1164] | ≥ 100 | < 10
21 | CC(C)Nc1nc([C@@H](C)O)cc2cnc(Nc3ccc(C(=O)N4CCNC[C@@H]4C)cn3)nc12 [Compound 1166] | ≥ 100 | < 10
22 | CCNc1nc([C@@H](C)O)c(C)c2cnc(Nc3ccc(CN4CCN(CCO)CC4)cn3)nc12 [Compound 1168] | ≥ 100 | < 10
23 | CCNc1nc([C@@H](C)O)cc2cnc(Nc3ccc(CN4CCN(CCO)C(C)(C)C4)cn3)nc12 [Compound 1169] | ≥ 100 | < 10
24 | C[C@@H](O)c1cc2cnc(Nc3ccc(CN4CCN(CCO)CC4)cn3)nc2c(NCC(F)(F)F)n1 [Compound 1170] | ≥ 100 | < 10
25 | C[C@@H](O)c1cc2cnc(Nc3ccc(CN4CCN(CCO)CC4)cn3)nc2c(NC2CC(F)C2)n1 (stereo partly shown) [Compound 1171] | ≥ 100 | < 10
26 | C[C@@H](O)c1cc2cnc(Nc3ccc(N4CCNCC4=O)cn3)nc2c(NC2(C)CC2)n1 [Compound 1173] | ≥ 100 | < 10
27 | C[C@@H](O)c1cc2cnc(Nc3ccc(N4CCNCC4=O)cn3)nc2c(NCC(F)(F)F)n1 [Compound 1174] | ≥ 100 | < 10
28 | C[C@@H](O)c1cc2cnc(Nc3ccc(N4CCNCC4)nn3)nc2c(NC2(C)CC2)n1 [Compound 1175] | ≥ 100 | < 10

The remaining lines, values ahead:

Row | IC50 (CDK2/cyclin A2) [nM] | IC50 (CDK4/cyclin D3) [nM] | SMILES
29 | ≥ 100 | < 10 | CCCNc1nc([C@@H](C)OC)cc2cnc(Nc3ccc4c(n3)CCN(CCO)C4)nc12 [Compound 1119]
30 | ≥ 100 | 10 to 100 | CCNc1nc([C@@H](C)OC)cc2cnc(Nc3ccc4c(n3)CCN(CCO)C4)nc12 [Compound 1120]
31 | ≥ 100 | < 10 | CO[C@H](C)c1cc2cnc(Nc3ccc4c(n3)CCN(CCO)C4)nc2c(N[C@H]2CCCOC2)n1 [Compound 1121]
32 | ≥ 100 | < 10 | OCCN1CCc2nc(Nc3ncc4cc(C5CCOC5)nc(N[C@H]5CCCOC5)c4n3)ccc2C1 (stereo partly shown) [Compound 1122]
33 | ≥ 100 | 10 to 100 | CCCNc1nc([C@@H](C)O)cc2cnc(Nc3ccc4c(n3)CCN(CCO)C4)nc12 [Compound 1123]
34 | ≥ 100 | 10 to 100 | CCNc1nc([C@@H](C)O)cc2cnc(Nc3ccc4c(n3)CCN(CCO)C4)nc12 [Compound 1124]
35 | ≥ 100 | < 10 | C[C@@H](O)c1cc2cnc(Nc3ccc4c(n3)CCN(CCO)C4)nc2c(N[C@H]2CCCOC2)n1 [Compound 1125]
36 | ≥ 100 | < 10 | C[C@@H](O)c1cc2cnc(Nc3ccc(CN4CCC(O)CC4)cn3)nc2c(N[C@H]2CCCOC2)n1 [Compound 1126]
37 | ≥ 100 | < 10 | C[C@@H](O)c1cc2cnc(Nc3ccc(CN4CCCC(O)C4)cn3)nc2c(NC(C)(C)C)n1 (stereo partly shown) [Compound 1127]
38 | ≥ 100 | < 10 | C[C@@H](O)c1cc2cnc(Nc3ccc(CN4CCCC(O)C4)cn3)nc2c(N[C@H]2CCCOC2)n1 (stereo partly shown) [Compound 1128]
39 | ≥ 100 | < 10 | CC1(c2cc3cnc(Nc4ccc5c(n4)CCN(CCO)C5)nc3c(N[C@H]3CCCOC3)n2)COC1 [Compound 1129]
40 | ≥ 100 | 10 to 100 | CCCNc1nc([C@@H](C)OC)cc2cnc(Nc3ccc4c(n3)CCN(CCN(C)C)C4)nc12 [Compound 1130]
41 | ≥ 100 | 10 to 100 | CCNc1nc([C@@H](C)OC)cc2cnc(Nc3ccc4c(n3)CCN(CCN(C)C)C4)nc12 [Compound 1131]
42 | ≥ 100 | < 10 | CO[C@H](C)c1cc2cnc(Nc3ccc4c(n3)CCN(CCN(C)C)C4)nc2c(N[C@H]2CCCOC2)n1 [Compound 1132]
43 | ≥ 100 | < 10 | CCCNc1nc([C@@H](C)OC)cc2cnc(Nc3ccc4c(n3)CCN(C(=O)OCCN(C)C)C4)nc12 [Compound 1133]
44 | ≥ 100 | < 10 | CCNc1nc([C@@H](C)OC)cc2cnc(Nc3ccc4c(n3)CCN(C(=O)OCCN(C)C)C4)nc12 [Compound 1134]
45 | ≥ 100 | < 10 | CO[C@H](C)c1cc2cnc(Nc3ccc4c(n3)CCN(C(=O)OCCN(C)C)C4)nc2c(N[C@H]2CCCOC2)n1 [Compound 1135]
46 | ≥ 100 | < 10 | CN(C)CCOC(=O)N1CCc2nc(Nc3ncc4cc(C5CCOC5)nc(N[C@H]5CCCOC5)c4n3)ccc2C1 (stereo partly shown) [Compound 1136]
47 | ≥ 100 | < 10 | CN(C)CCOC(=O)N1CCc2nc(Nc3ncc4cc(C5(C)COC5)nc(N[C@H]5CCCOC5)c4n3)ccc2C1 [Compound 1137]
48 | ≥ 100 | < 10 | CCCNc1nc([C@@H](C)O)cc2cnc(Nc3ccc4c(n3)CCN(CCN(C)C)C4)nc12 [Compound 1138]
49 | ≥ 100 | < 10 | CCNc1nc([C@@H](C)O)cc2cnc(Nc3ccc4c(n3)CCN(CCN(C)C)C4)nc12 [Compound 1139]
50 | ≥ 100 | < 10 | C[C@@H](O)c1cc2cnc(Nc3ccc4c(n3)CCN(CCN(C)C)C4)nc2c(N[C@H]2CCCOC2)n1 [Compound 1140]
51 | 10 to 100 | < 10 | CC(C)Nc1nc([C@@H](C)O)cc2cnc(Nc3ccc(C(=O)N4CCN(C)CC4)cn3)nc12 [Compound 1160]
52 | 10 to 100 | < 10 | CC(C)Nc1nc([C@@H](C)O)cc2cnc(Nc3ccc(C(=O)N4CCC(N(C)C)CC4)cn3)nc12 [Compound 1161]
53 | 10 to 100 | < 10 | CC(C)Nc1nc([C@@H](C)O)cc2cnc(Nc3ccc(C(=O)N4CC[C@H](N(C)C)C4)cn3)nc12 [Compound 1162]
54 | 10 to 100 | < 10 | CC(C)Nc1nc([C@@H](C)O)cc2cnc(Nc3ccc(C(=O)N4CC[C@@H](N(C)C)C4)cn3)nc12 [Compound 1163]
55 | 10 to 100 | < 10 | CC(C)Nc1nc([C@@H](C)O)cc2cnc(Nc3ccc(C(=O)N4CCN(CCO)CC4)cn3)nc12 [Compound 1165]
56 | 10 to 100 | < 10 | CC(C)Nc1nc([C@@H](C)O)cc2cnc(Nc3ccc(C(=O)N4CCNC[C@H]4C)cn3)nc12 [Compound 1167]
